In one data set the target is T1, CFTR (Homo sapiens, UniProt P13569).
T1 construct: endogenous in cells; host or cells: IL-13-treated primary HBE cell cultures (HBE = non-CF donors)
As to the kind of experiment: Short-circuit current (Isc) analysis in IL-13-treated HBE cells, forskolin / CFTRinh-172 response. The note with it: 25 μM, 30 min pre-treatment. The data set is classed as cell-based. The protocol: Further experiments were done with PDSinh-A01 because of its greater inhibition potency for Cl^−/HCO3^− exchange than PDSinh-C01. To investigate PDSinh-A01 specificity, the major ion transport pathways in HBE cells were studied by short-circuit current (Isc) analysis. Cells were treated with IL-13 to increase Ca^2+-activated Cl^− conductance (CaCC) activity. For Isc measurements, cells were sequentially treated with amiloride to inhibit the epithelial sodium channel (ENaC), forskolin to activate the cystic fibrosis transmembrane conductance regulator (CFTR), CFTRinh-172 to inhibit CFTR, and ATP to activate CaCC. In the absence of PDSinh-A01, ion channel modulators produced the anticipated changes in Isc (FIG. 4A).
IL-13-treated HBE cells were cultured on Snapwell clear permeable supports (12 mm diameter, 0.4 μm polyester membrane, Costar, Corning, Corning, N.Y.). Short-circuit current was measured using symmetrical HCO3^−-buffered solutions (in mM: 120 NaCl, 5 KCl, 1 MgCl2, 1 CaCl2, 5 Hepes, 25 NaHCO3; pH 7.4) as described, with ion transport modulators added to both apical and basolateral bathing solutions. Cells were equilibrated with 95% O2/5% CO2 and maintained at 37° C. during data acquisition. Statistical analysis was by Student's t-test.

The subject of data set [1] is HBE and CFBE cell cultures. As to the kind of experiment: ASL pH by BCECF-dextran ratio imaging in HBE and CFBE cultures. The format is cell-based, human. The following applies: 25 μM, 4 hours. The protocol:
To investigate the possible involvement of pendrin in ASL pH regulation, fluorescence ratio imaging was done of the ASL in HBE and CFBE cultures after staining with BCECF-dextran. In the absence of IL-13-treatment, ASL pH was ˜0.3 pH units more acidic in CFBE than HBE cultures (FIG. 5C; pH ˜7.4 vs. ˜7.1), in agreement with prior studies showing relative ASL acidity in CF.
ASL pH was measured using the pH-sensitive fluorophore BCECF conjugated to 10 kDa dextran (Invitrogen, Carlsbad, Calif.) as described, which was added 4-6 h prior to measurement (20 μl of 0.5 mg/ml in PBS). Cell inserts were incubated in HCO3^−-containing buffer (5% CO2 environment) and the ASL was imaged using a SMZ stereoscopic microscope (Nikon, Melville, N.Y.) equipped with a C9100 EM-CCD, Exfo XCite light source and BCECF filters (440/10X, 490/20X, 535/25M, Chroma, Bellows Falls, Vt.). In some experiments ASL pH was measured after PDSinh-A01 treatment, as described for ASL depth measurements. To relate BCECF fluorescence to pH, a calibration curve over the quasi-linear range of BCECF sensitivity was generated.

A short description of data set [2]: Pharmacokinetics in mice, LC/MS of plasma and urine. The format is in vivo. The note with it: 10 mg/kg bolus ip. The protocol:
(§1) Pharmacokinetics measurements were done to guide studies of diuretic efficacy. Animal experiments were approved by UCSF Institutional Animal Care and Use Committee. Female CD1 mice (8-10 weeks) were injected with 10 mg/kg PDSinh-C01 (in saline containing 5% DMSO and 10% Kolliphor HS) ip and blood was collected by orbital puncture at 15, 30, 60, 150 and 240 min, and centrifuged at 5000 rpm for 15 min to separate plasma. Urine was collected in metabolic cages. An LC/MS method was developed to measure PDSinh-C01 concentrations in mouse blood and urine. Plasma and urine samples (60 μL) were mixed with 300-μL acetonitrile and centrifuged at 13000 rpm for 20 min, and 90 μL of the supernatant was taken for liquid chromatography/mass spectrometry (LC/MS; Waters 2695 and Micromass ZQ). […] Sodium and potassium concentrations in 3-h collected urine samples were measured by flame photometry (PFP7 Clinical Flame Photometer, Bibby Scientific Ltd, Stone. Staffs, UK). […] Blood gas was analyzed by iSTAT1 with CG4+ cartridges (Abbott Laboratories, Abbott Park, IL, USA). Urine pH was measured on freshly collected urine samples using an AB 15 pH Meter (Fisher Scientific, Pittsburgh, Pa., USA). Experiments with two groups were analyzed with Student's t-test, and experiments with 3 or more groups were analyzed using one-way analysis of variance and post-hoc Newman-Keuls multiple comparisons test. […]

Another data set relates to mice (CD-1 and C57Bl/6). The experiment in a line: Acute furosemide diuresis model in mice. The data set is classed as in vivo. As to the method: as §1

The results in this text go back to patent US10702506B2, “Small molecule inhibitors of pendrin ion exchange and pharmaceutical compositions” (THE REGENTS OF THE UNIVERSITY OF CALIFORNIA, priority 2016, dated 2020).

Molecules are shown by their SMILES.

T1 sequence (P13569 whole entry): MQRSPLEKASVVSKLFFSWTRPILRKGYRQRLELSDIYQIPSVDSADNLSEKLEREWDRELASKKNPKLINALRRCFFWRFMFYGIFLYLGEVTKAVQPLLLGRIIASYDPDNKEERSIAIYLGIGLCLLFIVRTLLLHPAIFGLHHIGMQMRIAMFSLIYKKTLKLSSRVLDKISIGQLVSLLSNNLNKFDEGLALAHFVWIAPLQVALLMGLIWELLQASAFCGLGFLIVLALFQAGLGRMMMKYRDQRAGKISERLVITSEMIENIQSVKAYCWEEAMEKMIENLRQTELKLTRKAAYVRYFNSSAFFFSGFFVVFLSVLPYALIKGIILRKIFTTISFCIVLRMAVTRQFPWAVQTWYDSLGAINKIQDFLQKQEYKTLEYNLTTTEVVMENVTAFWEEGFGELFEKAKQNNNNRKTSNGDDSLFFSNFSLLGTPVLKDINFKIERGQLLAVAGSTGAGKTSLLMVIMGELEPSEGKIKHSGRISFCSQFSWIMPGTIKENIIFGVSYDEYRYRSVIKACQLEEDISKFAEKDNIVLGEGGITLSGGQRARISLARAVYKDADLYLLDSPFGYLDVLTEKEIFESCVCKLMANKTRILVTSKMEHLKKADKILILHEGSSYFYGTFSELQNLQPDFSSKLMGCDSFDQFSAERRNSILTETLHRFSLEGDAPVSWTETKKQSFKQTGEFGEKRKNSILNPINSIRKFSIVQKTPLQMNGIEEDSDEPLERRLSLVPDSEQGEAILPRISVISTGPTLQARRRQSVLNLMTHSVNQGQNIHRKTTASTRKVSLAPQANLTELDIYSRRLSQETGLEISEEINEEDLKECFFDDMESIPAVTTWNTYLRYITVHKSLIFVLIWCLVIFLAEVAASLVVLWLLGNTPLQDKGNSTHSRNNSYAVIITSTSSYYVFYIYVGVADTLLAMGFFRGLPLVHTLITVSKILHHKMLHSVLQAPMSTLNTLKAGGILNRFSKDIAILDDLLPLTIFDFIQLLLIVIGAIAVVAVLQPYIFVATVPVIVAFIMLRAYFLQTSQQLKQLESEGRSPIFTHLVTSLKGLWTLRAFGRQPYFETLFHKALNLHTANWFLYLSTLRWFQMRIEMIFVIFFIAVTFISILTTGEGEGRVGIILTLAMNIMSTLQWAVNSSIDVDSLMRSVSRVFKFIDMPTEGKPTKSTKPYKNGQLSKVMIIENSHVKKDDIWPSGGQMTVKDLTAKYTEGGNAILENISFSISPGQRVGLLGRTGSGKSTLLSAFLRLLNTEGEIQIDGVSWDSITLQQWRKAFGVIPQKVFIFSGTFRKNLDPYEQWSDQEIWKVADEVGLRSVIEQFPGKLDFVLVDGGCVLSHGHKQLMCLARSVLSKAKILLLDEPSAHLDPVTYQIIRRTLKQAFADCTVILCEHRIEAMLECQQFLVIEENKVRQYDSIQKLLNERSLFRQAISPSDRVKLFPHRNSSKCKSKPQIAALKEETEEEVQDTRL

As to `Cn1nc(COc2cccc(F)c2)c2c1CCN(C(=O)Nc1ccc(Cl)cc1)C2` [PDSinh-A01], at CFTR, the “effect on CFTR activity (Isc response)” value was “did not affect the activity”. In addition, the “effect on ASL pH, IL-13-treated cultures” value in data set [1] (IL-13-treated) is reported as “did not alter ASL pH”. Further, the “effect on ASL pH, basal conditions” value in data set [1] (no IL-13) is reported as “did not alter ASL pH”.
As to `Cc1n[nH]c(-c2cc(S(=O)(=O)NC3CCCc4ccccc43)c(C)s2)c1C` (stereo not shown) [PDSinh-C01], in data set [2], the concentration in plasma entry is reported as “predicted therapeutic concentrations for several hours” and the concentration in urine result was “predicted therapeutic concentrations for several hours”. Moreover, the “increase in urine volume” value in the data set with mice (CD-1 and C57Bl/6) (10 mg/kg ip with furosemide 5-50 mg/kg, 3 h urine) is listed as ~30%. In the data set on mice (CD-1 and C57Bl/6) (with furosemide), the “3-h urinary K+ excretion” value is “no significant effect”.
